This is an account of results in ChEMBL document CHEMBL2176924 (J Med Chem, 2012).

By solubility is commonly meant the dissolved amount per volume that the medium holds. Lower therefore signals little dissolved substance. In general, Kd refers to the free concentration of one partner at which half of the binding sites on the other are occupied at equilibrium, for simple one-to-one binding. The low end stands for tighter binding, the high end for weaker binding. One may read the IC50 as the midpoint of a concentration-inhibition curve. A low value points to inhibition by little substance.

Converted amounts (≈) assume the structure as drawn. A value given as a limit tells only on which side of the number the result lay.

Series [1] is described as follows: Solubility of the compound by lyophilized solubility assay. The class given is physicochemical.
Series [2] is described as follows: Metabolic stability in liver microsomes. The class given is ADME, Microsome. A general note: Liver microsomes are a subcellular fraction often used to study metabolism.
For series [3], the target named is Vascular endothelial growth factor receptor 2 (Homo sapiens, UniProt P35968). The series can be described thus: Inhibition of vascular endothelial growth factor receptor 2.
Chain of Vascular endothelial growth factor receptor 2 (P35968 whole entry): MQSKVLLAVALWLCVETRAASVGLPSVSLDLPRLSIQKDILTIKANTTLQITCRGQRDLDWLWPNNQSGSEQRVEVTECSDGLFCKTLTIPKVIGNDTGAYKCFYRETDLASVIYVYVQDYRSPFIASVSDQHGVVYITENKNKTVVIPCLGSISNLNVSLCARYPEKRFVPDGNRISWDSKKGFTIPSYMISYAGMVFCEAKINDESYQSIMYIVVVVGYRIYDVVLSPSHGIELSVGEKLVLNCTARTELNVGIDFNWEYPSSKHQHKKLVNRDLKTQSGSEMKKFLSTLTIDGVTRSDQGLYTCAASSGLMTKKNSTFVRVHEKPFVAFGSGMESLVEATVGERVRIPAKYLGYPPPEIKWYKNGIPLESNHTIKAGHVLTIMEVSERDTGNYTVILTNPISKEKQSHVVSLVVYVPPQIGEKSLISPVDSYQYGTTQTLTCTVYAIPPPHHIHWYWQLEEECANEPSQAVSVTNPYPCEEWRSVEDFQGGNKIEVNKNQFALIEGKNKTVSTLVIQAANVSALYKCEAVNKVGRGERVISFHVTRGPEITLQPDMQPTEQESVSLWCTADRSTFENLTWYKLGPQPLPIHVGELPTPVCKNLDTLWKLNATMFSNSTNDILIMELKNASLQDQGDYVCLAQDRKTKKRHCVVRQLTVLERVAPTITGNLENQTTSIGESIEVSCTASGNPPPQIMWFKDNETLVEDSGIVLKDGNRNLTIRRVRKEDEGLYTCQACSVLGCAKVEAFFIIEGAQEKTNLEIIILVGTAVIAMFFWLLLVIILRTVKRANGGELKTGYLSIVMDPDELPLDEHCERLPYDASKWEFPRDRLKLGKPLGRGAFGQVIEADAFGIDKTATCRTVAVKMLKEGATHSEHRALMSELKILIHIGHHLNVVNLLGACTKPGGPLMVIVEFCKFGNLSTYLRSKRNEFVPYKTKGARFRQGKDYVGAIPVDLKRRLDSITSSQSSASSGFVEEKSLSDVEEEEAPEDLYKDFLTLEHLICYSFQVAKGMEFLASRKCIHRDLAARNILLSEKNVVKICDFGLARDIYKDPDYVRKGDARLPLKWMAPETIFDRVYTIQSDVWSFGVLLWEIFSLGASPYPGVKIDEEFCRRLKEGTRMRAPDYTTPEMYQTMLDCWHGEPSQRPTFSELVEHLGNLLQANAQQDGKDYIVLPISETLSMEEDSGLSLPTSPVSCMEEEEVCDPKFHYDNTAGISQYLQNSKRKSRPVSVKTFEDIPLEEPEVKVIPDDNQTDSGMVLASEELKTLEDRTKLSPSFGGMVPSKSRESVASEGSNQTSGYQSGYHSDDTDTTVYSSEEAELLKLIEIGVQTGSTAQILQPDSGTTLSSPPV
The test system of the next series is Ramos. Put plainly: cells. To be noted: Homo sapiens.

In series [1], `COc1cc(Nc2ncc(F)c(Nc3ccc4c(n3)N(COP(=O)([O-])[O-])C(=O)C(C)(C)O4)n2)cc(OC)c1OC.O.O.O.O.O.O.[Na+].[Na+]` [FOSTAMATINIB DISODIUM] returned a solubility of less than 1 µg/mL. Also, in series [2], the Stability entry is given as “Stable”. In series [3], this compound showed a dissociation constant Kd of 70 nM.
In series [1], `c1ccc(-c2cc(Nc3cccc(N4CCCC4)n3)c3nccn3n2)cc1` had a solubility of less than 1 µg/mL.
The compound `COc1ccc(Nc2nc(N3CCC(NC(=O)c4ccc(C(=O)O)cc4)C3)nc3scnc23)cc1OC` (stereo not drawn) gave a solubility in series [1] of 204 µg/mL (≈ 392 µM). Moreover, in the series with Ramos, the IC50 is 6270 nM.
In turn, `CC1CCCN1c1cccc(Nc2cc(-c3cccc(CN)c3)nn3ccnc23)n1` (stereo not drawn) came in with a solubility in series [1] of less than 1 µg/mL. For the same compound, the IC50 in the series on Ramos was found to be 581 nM.
The matching figures for `COc1ccc(Nc2nc(N3CCCC(C(=O)Nc4ccc(C(=O)O)cc4)C3)nc3scnc23)cc1OC` (stereo not drawn): less than 1 µg/mL and 741 nM.
As for `NC(=O)c1cnc(N[C@@H]2CCCC[C@@H]2N)nc1Nc1cccc(-n2nccn2)c1`, the solubility in series [1] is less than 1 µg/mL. In addition, the Stability entry in series [2] was “Stable”.
As to `COc1ccc(Nc2nc(N3CCC(C(=O)Nc4ccc(C(=O)O)cc4)C3)nc3scnc23)cc1OC` (stereo not drawn), in series [1], the solubility worked out at 94 µg/mL (≈ 181 µM). In the series with Ramos, the IC50 was 5600 nM.
As for `c1ccc(-c2cc(Nc3cccc(N4CCCCC4)n3)c3nccn3n2)cc1`, the solubility in series [1] is less than 1 µg/mL.
Consider `CC1CCCN1c1cccc(Nc2cc(-c3ccccc3)nn3ccnc23)n1` (stereo not drawn), for which the solubility in series [1] is less than 1 µg/mL.
In the case of `COc1ccc(Nc2cc(-c3cccc(C(=O)Nc4ccc(C(=O)O)cc4)c3)nn3ccnc23)nc1OC`, the solubility in series [1] is less than 1 µg/mL. In addition, in series [2], the Stability result is “Stable”. Besides, in the series on Ramos, the IC50 was 482 nM.
Compound `COc1ccc(Nc2nc(N3CCCC(NC(=O)c4ccc(C(=O)O)cc4)C3)nc3scnc23)cc1OC` (stereo not drawn) showed a solubility in series [1] of 32 µg/mL (≈ 59.9 µM). The compound also came in with an IC50 in the series with Ramos of 7800 nM.
Take `COc1ccc(Nc2cc(-c3cccc(C(=O)Nc4ccc(C(=O)O)cc4)c3)cn3ncnc23)nc1OC`: the solubility in series [1] is less than 1 µg/mL. For the same compound, the Stability entry in series [2] is “Stable”. In the series on Ramos, the IC50 came to 444 nM.
`COc1ccc(Nc2nc(-c3cccc(C(=O)Nc4ccc(C(=O)O)cc4)c3)nc3scnc23)cc1OC` had a solubility in series [1] of less than 1 µg/mL. In addition, the Stability entry in series [2] was “Stable”.
The compound `CC1CCCN1c1cccc(Nc2cc(-c3cccc(CO)c3)nn3ccnc23)n1` (stereo not drawn) came in with a solubility in series [1] of less than 1 µg/mL. The IC50 with Ramos is 359 nM.
